Patent publication US20080269266A1, “NOVEL COMPOUNDS 747” (ASTRAZENECA AB, priority 2007, published 2008)

Key:
[1] = molecular target: T1, human cytochrome P450 (CYP) 2C19 (Homo sapiens, UniProt P33261); experiment: Cytochrome P450 Inhibition Assay 2C19; format: in vitro ADME; details: read-out: IC50 range, CYP 2C19
T1 construct: made in house; host or cells: yeast cell lines (microsomal fractions)
Description: The inhibitory potential (IC50) of test compounds against 5 human cytochrome P450 (CYP) isoforms (1A2, 2C9, 2C19, 3A4 and 2D6) was assessed using an automated fluorescent end point in vitro assay modified from Crespi (Crespi and Stresser, 2000). Microsomal subcellular fractions prepared from Yeast cell lines expressing each human CYP isoform were used as an enzyme source in this assay. The activity of the 5 major human CYPs was determined from the biotransformation of a number of coumarin substrates to fluorescent metabolites, in the presence of NADPH. […] Stock solutions of each CYP, with its respective substrate, were prepared in phosphate buffer pH7.4 (see Table 1) and 178 μl was added to the well of a black solid, flat bottom, 300 μl 96 well is microtitre plate (Corning Costar). […] After pre-incubating at 37° C. for 5 min the reactions were started with addition of NADPH (20 μl, concentration shown in Table 1). The final solvent content in each incubation was <=2% (1% from the test compound and a maximum of 1% from the substrate). The appropriate solvent controls and substrate blanks were included in each experiment to assess control activity and identify any inherent fluorescence due to the test compounds. In addition, known inhibitors of each CYP were included as positive controls (see Table 3 for inhibitor concentrations and expected IC50 ranges). The reactions were stopped at defined timepoints (see Table 1) by quenching with 100 μl of solvent (acetonitrile:0.5M Tris buffer 80:20 v/v). The plates were read on a fluorimeter (Spectrafluor Plus) at the appropriate excitation and emission wavelengths (listed in Table 2) and the percent activity, corrected for control, was plotted against the test compound concentration.

[2] = Solubility in 0.1 M phosphate buffer pH 7.4; format: physicochemical; details: pH 7.4, 24 h, 25° C.
Description: Solubility values are determined by agitation of compounds in 0.1 M phosphate buffer at pH 7.4 for 24 h at 25° C. The supernatant is separated from undissolved material by double centrifugation and subsequently analyzed and quantified against a standard of known concentration in DMSO using generic HPLC-UV methodology coupled with mass spectral peak identification (J. Med. Chem., 2006, 49(23), 6672-6682).

T1 sequence (P33261 whole entry): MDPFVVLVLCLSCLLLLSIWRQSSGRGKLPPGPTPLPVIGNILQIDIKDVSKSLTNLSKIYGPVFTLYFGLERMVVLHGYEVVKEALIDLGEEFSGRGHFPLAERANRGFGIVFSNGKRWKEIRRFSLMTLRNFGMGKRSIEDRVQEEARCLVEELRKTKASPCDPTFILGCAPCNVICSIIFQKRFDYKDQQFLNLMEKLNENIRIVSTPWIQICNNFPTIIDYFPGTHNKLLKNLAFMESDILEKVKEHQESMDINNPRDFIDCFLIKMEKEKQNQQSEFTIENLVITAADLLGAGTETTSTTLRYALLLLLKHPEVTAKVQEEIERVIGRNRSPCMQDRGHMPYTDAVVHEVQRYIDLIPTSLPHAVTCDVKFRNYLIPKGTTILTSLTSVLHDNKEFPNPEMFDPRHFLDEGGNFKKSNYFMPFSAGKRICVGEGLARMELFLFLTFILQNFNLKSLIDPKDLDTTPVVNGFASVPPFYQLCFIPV

For `COc1ccc2[nH]c([S+]([O-])Cc3ncc(C)c(OC)c3C)nc2c1` (centres unmarked) [Omeprazole], the IC50 [1] was 1.5 to 4.6 µM.
With `COc1cc(Nc2cc(C)n[nH]2)nc(N2CCC[C@H]2c2cc(-c3ncccn3)no2)n1` [mixture of Forms 1 and 3, (S)-6-Methoxy-2-{2-[3-(pyrimid-2-yl)isoxazol-5-yl]pyrrolidin-1-yl}-4-(5-methyl-1H-pyrazol-3-ylamino)pyrimidine] the Solubility [2] was “around 18 μM”.
